Data as given in publication PMC7707621, “Oxidized Juncuenin B Analogues with Increased Antiproliferative Activity on Human Adherent Cell Lines: Semisynthesis and Biological Evaluation” (Journal of Natural Products, 2020).
“Also recorded” adds a separate entry of the source.

The compounds below were run on A2780 cells (assay: MTT antiproliferative assay on A2780). Settings: Homo sapiens, A2780, 10 μM; read-out: Growth inhibition (% ± SEM), A2780.
Format: cell-based, human
Description: (§1) The antiproliferative assays of the products were carried out by a standard MTT method on human breast (MCF-7, T47D), cervical (HeLa, SiHa, C33A), and ovarian (A2780) cancer cells, and NIH/3T3 mouse embryonic fibroblast cell lines. In the first step, the diastereomeric and racemic mixtures 1–11 and the starting compound, juncuenin B, were tested to obtain information about their antiproliferative activity.
(§2) The antiproliferative activity and tumor selectivity of the compounds were measured by standard MTT assays. Tumor cell lines MCF-7, T47D, HeLa, A2780, and noncancerous NIH/3T3 were provided by European Collection of Authenticated Cell Cultures (ECACC, Salisbury, UK); cell lines SiHa and C33A by LGC Standards GmbH (Wesel, Germany). All chemicals and materials used for the antiproliferative assays were purchased from Sigma Aldrich Ltd. (Budapest, Hungary).
(§3) Growth-inhibition properties of racemates and pure enantiomer compounds were determined by standard MTT assays on six human malignant gynecological cell lines (MCF-7, T47D, HeLa, SiHa, C33A, A2780). To investigate tumor selectivity, the MTT assay was repeated on mouse embryonic fibroblast cells (NIH/3T3) under the same conditions. All cell lines were maintained in minimal essential medium (MEM) supplemented with 10% fetal bovine serum, 1% nonessential amino acids, and 1% penicillin–streptomycin–amphotericin B mixture, and were stored in humidified air containing 5% CO2 at 37 °C. All cell types were seeded into 96–well plates at a density of 5000 with the exception of C33a, which was seeded at a density of 10 000 and treated by increasing concentrations (0.1–30 μM) of the compounds for 72 h under cell culturing conditions. After the incubation, 5 mg/mL MTT [3-(4,5-dimethylthiazol-2-yl)-2,5-diphenyltetrazolium bromide] solution was added to samples for 4 h and precipitated blue formazan crystals were dissolved in DMSO. Absorbance values of the samples were measured at 545 nm using a microplate reader (Stat Fax-2100, Awareness Technologies Inc., Palm City, FL, USA) and untreated cells were used as control. Normalized sigmoidal dose–response curves were fitted to the determined data and the IC50 values were calculated by GraphPad Prism 5.01 (GraphPad Software, San Diego, CA, USA). Cisplatin (Ebewe Pharma GmbH, Unterach, Austria) was used as a reference agent in the same concentration range.

Row | Structure (SMILES) | inhibition at 10 µM
1 | C=CC1=C2CCc3c(ccc(O)c3C)C2=CC(=O)C1(C)OCC (stereo not shown) [Compound 9] | < 10%
2 | C=CC1=C(C)C(=O)C(OCCCC)(OCCCC)c2c1ccc1c2C=CC(=O)C1(C)OCCCC (stereo not shown) [Compound 10] | < 10%
3 | C=CC1=C(C)C(=O)C=C2c3ccc(O)c(C)c3CCC21OCCCC (stereo not shown) [Compound 11] | 28.3 ± 2.31%

Same assay, conditions: Homo sapiens, A2780, 30 μM; read-out: Growth inhibition (% ± SEM), A2780

Row | Structure (SMILES) | inhibition at 30 µM
4 | C=CC1=C2CCc3c(ccc(O)c3C)C2=CC(=O)C1(C)OCC (stereo not shown) [Compound 9] | < 10%
5 | C=CC1=C(C)C(=O)C(OCCCC)(OCCCC)c2c1ccc1c2C=CC(=O)C1(C)OCCCC (stereo not shown) [Compound 10] | 10.1 ± 1.23%
6 | C=CC1=C(C)C(=O)C=C2c3ccc(O)c(C)c3CCC21OCCCC (stereo not shown) [Compound 11] | 77.82 ± 0.69%

Same assay, conditions: Homo sapiens, A2780; MTT, 0.1–30 μM, 72 h, mean ± SEM; read-out: calculated IC50 values, A2780

Row | Structure (SMILES) | IC50
7 | C=CC1=C(C)C(=O)C=C2c3ccc(O)c(C)c3CCC21OCCCC (stereo not shown) [Compound 11] | 16.5 ± 2 µM

What follows are compounds tested on MCF-7, T47D, HeLa, SiHa, C33A, A2780 cells (assay: MTT antiproliferative assay, panel of human gynecological cancer cell lines (result in words)). Settings: not given.
Format: cell-based
Description: as §1, §2, §3

Row | Structure (SMILES) | antiproliferative activity (in words)
8 | C=CC1=C2CCc3c(ccc(O)c3C)C2=CC(=O)C1(C)OCC (stereo not shown) [Compound 9] | did not exert antiproliferative activity; also recorded: No significant activities
9 | C=CC1=C(C)C(=O)C(OCCCC)(OCCCC)c2c1ccc1c2C=CC(=O)C1(C)OCCCC (stereo not shown) [Compound 10] | did not exert antiproliferative activity
10 | C=CC1=C(C)C(=O)C=C2c3ccc(O)c(C)c3CCC21OCCCC (stereo not shown) [Compound 11] | No significant activities

What follows are compounds tested on NIH/3T3 mouse embryonic fibroblast cells (assay: MTT assay for tumor selectivity on NIH/3T3). Settings: Mus musculus, NIH3T3; MTT, 0.1–30 μM, 72 h, mean ± SEM; read-out: calculated IC50 values, NIH/3T3.
Format: cell-based
Description: as §1, §2, §3

Row | Structure (SMILES) | IC50
11 | C=CC1=C(C)C(=O)C=C2c3ccc(O)c(C)c3CCC21OCCCC (stereo not shown) [Compound 11] | > 30 µM

What follows are compounds tested on MCF-7 cells (assay: MTT antiproliferative assay on MCF-7). Settings: Homo sapiens, MCF7, 10 μM; read-out: Growth inhibition (% ± SEM), MCF-7.
Format: cell-based, human
Description: as §1, §2, §3

Row | Structure (SMILES) | inhibition at 10 µM
12 | C=CC1=C2CCc3c(ccc(O)c3C)C2=CC(=O)C1(C)OCC (stereo not shown) [Compound 9] | 10.7 ± 2.42%
13 | C=CC1=C(C)C(=O)C(OCCCC)(OCCCC)c2c1ccc1c2C=CC(=O)C1(C)OCCCC (stereo not shown) [Compound 10] | < 10%
14 | C=CC1=C(C)C(=O)C=C2c3ccc(O)c(C)c3CCC21OCCCC (stereo not shown) [Compound 11] | 27.7 ± 1.3%

Same assay, conditions: Homo sapiens, MCF7, 30 μM; read-out: Growth inhibition (% ± SEM), MCF-7

Row | Structure (SMILES) | inhibition at 30 µM
15 | C=CC1=C2CCc3c(ccc(O)c3C)C2=CC(=O)C1(C)OCC (stereo not shown) [Compound 9] | 17 ± 2.56%
16 | C=CC1=C(C)C(=O)C(OCCCC)(OCCCC)c2c1ccc1c2C=CC(=O)C1(C)OCCCC (stereo not shown) [Compound 10] | 42.5 ± 2.23%
17 | C=CC1=C(C)C(=O)C=C2c3ccc(O)c(C)c3CCC21OCCCC (stereo not shown) [Compound 11] | 82.46 ± 0.33%

Same assay, conditions: Homo sapiens, MCF7; MTT, 0.1–30 μM, 72 h, mean ± SEM; read-out: calculated IC50 values, MCF-7

Row | Structure (SMILES) | IC50
18 | C=CC1=C(C)C(=O)C=C2c3ccc(O)c(C)c3CCC21OCCCC (stereo not shown) [Compound 11] | 18.2 ± 0.2 µM

Each compound was assayed on HeLa cells (assay: MTT antiproliferative assay on HeLa). Settings: Homo sapiens, HeLa, 10 μM; read-out: Growth inhibition (% ± SEM), HeLa.
Format: cell-based, human
Description: as §1, §2, §3

Row | Structure (SMILES) | inhibition at 10 µM
19 | C=CC1=C2CCc3c(ccc(O)c3C)C2=CC(=O)C1(C)OCC (stereo not shown) [Compound 9] | 15.1 ± 1.9%
20 | C=CC1=C(C)C(=O)C(OCCCC)(OCCCC)c2c1ccc1c2C=CC(=O)C1(C)OCCCC (stereo not shown) [Compound 10] | < 10%
21 | C=CC1=C(C)C(=O)C=C2c3ccc(O)c(C)c3CCC21OCCCC (stereo not shown) [Compound 11] | < 10%

Same assay, conditions: Homo sapiens, HeLa, 30 μM; read-out: Growth inhibition (% ± SEM), HeLa

Row | Structure (SMILES) | inhibition at 30 µM
22 | C=CC1=C2CCc3c(ccc(O)c3C)C2=CC(=O)C1(C)OCC (stereo not shown) [Compound 9] | 18.4 ± 3.15%
23 | C=CC1=C(C)C(=O)C(OCCCC)(OCCCC)c2c1ccc1c2C=CC(=O)C1(C)OCCCC (stereo not shown) [Compound 10] | 14.1 ± 1.97%
24 | C=CC1=C(C)C(=O)C=C2c3ccc(O)c(C)c3CCC21OCCCC (stereo not shown) [Compound 11] | 42.6 ± 1.18%

Same assay, conditions: Homo sapiens, HeLa; MTT, 0.1–30 μM, 72 h, mean ± SEM; read-out: calculated IC50 values, HeLa

Row | Structure (SMILES) | IC50
25 | C=CC1=C(C)C(=O)C=C2c3ccc(O)c(C)c3CCC21OCCCC (stereo not shown) [Compound 11] | > 30 µM

These compounds were tested on C33A cells (assay: MTT antiproliferative assay on C33A). Settings: Homo sapiens, C-33-A, 10 μM; read-out: Growth inhibition (% ± SEM), C33a.
Format: cell-based, human
Description: as §1, §2, §3

Row | Structure (SMILES) | inhibition at 10 µM
26 | C=CC1=C2CCc3c(ccc(O)c3C)C2=CC(=O)C1(C)OCC (stereo not shown) [Compound 9] | < 10%
27 | C=CC1=C(C)C(=O)C(OCCCC)(OCCCC)c2c1ccc1c2C=CC(=O)C1(C)OCCCC (stereo not shown) [Compound 10] | < 10%
28 | C=CC1=C(C)C(=O)C=C2c3ccc(O)c(C)c3CCC21OCCCC (stereo not shown) [Compound 11] | 20.1 ± 2.24%

Same assay, conditions: Homo sapiens, C-33-A, 30 μM; read-out: Growth inhibition (% ± SEM), C33a

Row | Structure (SMILES) | inhibition at 30 µM
29 | C=CC1=C2CCc3c(ccc(O)c3C)C2=CC(=O)C1(C)OCC (stereo not shown) [Compound 9] | < 10%
30 | C=CC1=C(C)C(=O)C(OCCCC)(OCCCC)c2c1ccc1c2C=CC(=O)C1(C)OCCCC (stereo not shown) [Compound 10] | 16 ± 1.43%
31 | C=CC1=C(C)C(=O)C=C2c3ccc(O)c(C)c3CCC21OCCCC (stereo not shown) [Compound 11] | 65.5 ± 1.26%

Same assay, conditions: Homo sapiens, C-33-A; MTT, 0.1–30 μM, 72 h, mean ± SEM; read-out: calculated IC50 values, C33A

Row | Structure (SMILES) | IC50
32 | C=CC1=C(C)C(=O)C=C2c3ccc(O)c(C)c3CCC21OCCCC (stereo not shown) [Compound 11] | 19.9 ± 1.3 µM

Each compound was assayed on SiHa cells (assay: MTT antiproliferative assay on SiHa). Settings: Homo sapiens, SiHa, 10 μM; read-out: Growth inhibition (% ± SEM), SiHa.
Format: cell-based, human
Description: as §1, §2, §3

Row | Structure (SMILES) | inhibition at 10 µM
33 | C=CC1=C2CCc3c(ccc(O)c3C)C2=CC(=O)C1(C)OCC (stereo not shown) [Compound 9] | < 10%
34 | C=CC1=C(C)C(=O)C(OCCCC)(OCCCC)c2c1ccc1c2C=CC(=O)C1(C)OCCCC (stereo not shown) [Compound 10] | < 10%
35 | C=CC1=C(C)C(=O)C=C2c3ccc(O)c(C)c3CCC21OCCCC (stereo not shown) [Compound 11] | < 10%

Same assay, conditions: Homo sapiens, SiHa, 30 μM; read-out: Growth inhibition (% ± SEM), SiHa

Row | Structure (SMILES) | inhibition at 30 µM
36 | C=CC1=C2CCc3c(ccc(O)c3C)C2=CC(=O)C1(C)OCC (stereo not shown) [Compound 9] | < 10%
37 | C=CC1=C(C)C(=O)C(OCCCC)(OCCCC)c2c1ccc1c2C=CC(=O)C1(C)OCCCC (stereo not shown) [Compound 10] | 10.4 ± 2.8%
38 | C=CC1=C(C)C(=O)C=C2c3ccc(O)c(C)c3CCC21OCCCC (stereo not shown) [Compound 11] | < 10%

Same assay, conditions: Homo sapiens, SiHa; MTT, 0.1–30 μM, 72 h, mean ± SEM; read-out: calculated IC50 values, SiHa

Row | Structure (SMILES) | IC50
39 | C=CC1=C(C)C(=O)C=C2c3ccc(O)c(C)c3CCC21OCCCC (stereo not shown) [Compound 11] | > 30 µM

These compounds were tested on T47D cells (assay: MTT antiproliferative assay on T47D). Settings: Homo sapiens, T47D, 10 μM; read-out: Growth inhibition (% ± SEM), T47d.
Format: cell-based, human
Description: as §1, §2, §3

Row | Structure (SMILES) | inhibition at 10 µM
40 | C=CC1=C2CCc3c(ccc(O)c3C)C2=CC(=O)C1(C)OCC (stereo not shown) [Compound 9] | < 10%
41 | C=CC1=C(C)C(=O)C(OCCCC)(OCCCC)c2c1ccc1c2C=CC(=O)C1(C)OCCCC (stereo not shown) [Compound 10] | < 10%
42 | C=CC1=C(C)C(=O)C=C2c3ccc(O)c(C)c3CCC21OCCCC (stereo not shown) [Compound 11] | 11.6 ± 1.4%

Same assay, conditions: Homo sapiens, T47D, 30 μM; read-out: Growth inhibition (% ± SEM), T47d

Row | Structure (SMILES) | inhibition at 30 µM
43 | C=CC1=C2CCc3c(ccc(O)c3C)C2=CC(=O)C1(C)OCC (stereo not shown) [Compound 9] | 13.2 ± 2.03%
44 | C=CC1=C(C)C(=O)C(OCCCC)(OCCCC)c2c1ccc1c2C=CC(=O)C1(C)OCCCC (stereo not shown) [Compound 10] | 33 ± 1.62%
45 | C=CC1=C(C)C(=O)C=C2c3ccc(O)c(C)c3CCC21OCCCC (stereo not shown) [Compound 11] | 52.9 ± 0.59%

Same assay, conditions: Homo sapiens, T47D; MTT, 0.1–30 μM, 72 h, mean ± SEM; read-out: calculated IC50 values, T47D

Row | Structure (SMILES) | IC50
46 | C=CC1=C(C)C(=O)C=C2c3ccc(O)c(C)c3CCC21OCCCC (stereo not shown) [Compound 11] | 30 ± 0.5 µM
